# Test results as given in ChEMBL document CHEMBL1125015, “Synthesis and antiarrhythmic activity of 5,11-dihydro[1]benzoxepino[3,4-b]pyridines” (1990).
# How the values were obtained:
# Mus musculus [1] = species: Mus musculus; experiment: Inhibition of chloroform induced ventricular arrhythmia; format: functional, Cardiac ventricle
# [2] = target: T1, Muscarinic acetylcholine receptor (Rattus norvegicus) (UniProt P08482+P08483+P08485+P08911+P10980); experiment: Inhibitory effect on muscarinic acetylcholine receptor binding affinity at a concentration of (10e -5)M; format: protein assay
# Canis familiaris [3] = experiment: No. of cases tested was measured on ouabain induced ventricular arrhythmia at 5 mg/kg, iv in dogs; 0/2; format: functional, Canis lupus familiaris, Cardiac ventricle
# [4] = target: T1, Muscarinic acetylcholine receptor (Rattus norvegicus); experiment: Inhibitory effect on muscarinic acetylcholine receptor binding affinity at a concentration of (10e -6)M; format: protein assay
# Canis familiaris [5] = experiment: No. of cases tested was measured on ouabain induced ventricular arrhythmia at dose (10mg/Kg, iv); 0/2; format: functional, Canis lupus familiaris, Cardiac ventricle
# Canis familiaris [6] = experiment: No. of cases tested was measured on ouabain induced ventricular arrhythmia at 5 mg/kg, iv in dogs; 1/3; format: functional, Canis lupus familiaris, Cardiac ventricle
# Canis familiaris [7] = experiment: No. of cases tested was measured on ouabain induced ventricular arrhythmia at 5 mg/kg, iv in dogs; 2/2; format: functional, Canis lupus familiaris, Cardiac ventricle
# Mus musculus [8] = experiment: Dose (po) required to double the prodrug pupil size; format: functional
# Canis familiaris [9] = experiment: No. of cases tested was measured on ouabain induced ventricular arrhythmia at 5 mg/kg, iv in dogs; 6/6; format: functional, Canis lupus familiaris, Cardiac ventricle
# [10] = Ratio of ED100 (Dose po required to double the prodrug pupil size in mice) to that of ED50 (50% inhibition of chloroform induced ventricular arrhythmia in mice); format: functional
# Canis familiaris [11] = experiment: No. of cases tested was measured on ouabain induced ventricular arrhythmia at dose 10mg/Kg, iv; 0/3; format: functional, Canis lupus familiaris, Cardiac ventricle
# Canis familiaris [12] = experiment: No. of cases tested was measured on ouabain induced ventricular arrhythmia at 5 mg/kg, iv in dogs; 0/3; format: functional, Canis lupus familiaris, Cardiac ventricle
# Canis familiaris [13] = experiment: No. of cases tested was measured on ouabain induced ventricular arrhythmia at 5 mg/kg, iv in dogs; 2/3; format: functional, Canis lupus familiaris, Cardiac ventricle
# Canis familiaris [14] = experiment: No. of cases tested was measured on ouabain induced ventricular arrhythmia at 5 mg/kg, iv in dogs; 0/4; format: functional, Canis lupus familiaris, Cardiac ventricle
# Canis familiaris [15] = experiment: No. of cases tested was measured on ouabain induced ventricular arrhythmia at 5 mg/kg, iv in dogs; 1/4; format: functional, Canis lupus familiaris, Cardiac ventricle
# Canis familiaris [16] = experiment: Antiarrhythmic activity in ouabain-induced ventricular arrhythmia in dog at compound concentration of 10 mg/kg; format: functional, Canis lupus familiaris, Heart
# Canis familiaris [17] = experiment: No. of cases tested was measured on ouabain induced ventricular arrhythmia at 5 mg/kg, iv in dogs; 1/7; format: functional, Canis lupus familiaris, Cardiac ventricle
# Canis familiaris [18] = experiment: No. of cases tested was measured on ouabain induced ventricular arrhythmia at 5 mg/kg, iv in dogs; 3/3; format: functional, Canis lupus familiaris, Cardiac ventricle
# Canis familiaris [19] = experiment: No. of cases tested was measured on ouabain induced ventricular arrhythmia at 5 mg/kg, iv in dogs; 0/1; format: functional, Canis lupus familiaris, Cardiac ventricle
# Mus musculus [20] = species: Mus musculus; experiment: Compound was evaluated by measuring the 50% inhibition of chloroform induced ventricular arrhythmia in mice; format: functional; conditions: Cardiac ventricle
# Canis familiaris [21] = experiment: No. of cases tested was measured on ouabain induced ventricular arrhythmia at 5 mg/kg, iv in dogs; 3/6; format: functional, Canis lupus familiaris, Cardiac ventricle
# [22] = Mus musculus, Cardiac ventricle, read-out: ED50
SMILES,ED50 (Mus musculus [1]; [22]) [mg/kg],inhibition [2] [%],No. positive cases/tested (Canis familiaris [3]),inhibition [4] [%],other results
CCN(CC)CCNC1c2cc(C)ccc2OCc2ncccc21 (configuration not stated),> 100,–,–,–,–
CCN(CC)CCNC1c2ccc(OC)cc2OCc2ncccc21 (configuration not stated),> 100,7,0,14,–
CCN(CC)CCNC1c2cc(F)ccc2OCc2ncccc21 (configuration not stated),> 100,–,0,–,–
CCN(CC)CCNC1c2cc(OC(C)C)ccc2OCc2ncccc21 (configuration not stated),53,12,0,3,–
CCN(CC)CCNC1c2cc(N(C)C)ccc2OCc2ncccc21 (configuration not stated),> 100,19,–,4,No. positive cases/tested (Canis familiaris [5]): 0
COc1ccc2c(c1)C(NCCN1C(C)CCCC1C)c1cccnc1CO2 (configuration not stated),> 100,11,–,2,No. positive cases/tested (Canis familiaris [6]): 1
CCN1CCCC1CNC1c2cc(OC)ccc2OCc2ncccc21 (stereo in doubt; 26) [listing 1 of 2 here],–,–,0,–,ED50 (Mus musculus [1]): 61 mg/kg
COc1ccc2c(c1)C(NN1CCN(C)CC1)c1cccnc1CO2 (configuration not stated),> 100,7,0,2,–
CCN(CC)CC/C=C1/c2ccccc2OCc2ncccc21,> 17,80,–,28,No. positive cases/tested (Canis familiaris [7]): 2
CC(C)N(CCC(C(N)=O)(c1ccccc1)c1ccccn1)C(C)C (configuration not stated) [DISOPYRAMIDE],35,7,–,-1,ED100 (Mus musculus [8]): 20 mg/kg; No. positive cases/tested (Canis familiaris [9]): 6; Ratio [10]: 0.6
CCN(CC)CCNC1c2ccccc2OCc2ncccc21 (configuration not stated),93,–,–,–,No. positive cases/tested (Canis familiaris [11]): 0
CCN(CC)CCSC1c2cc(OC)ccc2OCc2ncccc21 (configuration not stated),31,20,–,1,No. positive cases/tested (Canis familiaris [12]): 0
CCN(CC)CC/C=C1\c2ccccc2OCc2ncccc21,100,45,–,6,No. positive cases/tested (Canis familiaris [13]): 2
CCN(CC)CC/C=C1\c2cc(OC)ccc2OCc2ncccc21,> 100,27,–,3,No. positive cases/tested (Canis familiaris [14]): 0
CCN(CC)CC/C=C1/c2cc(OC)ccc2OCc2ncccc21,14,26,–,5,No. positive cases/tested (Canis familiaris [15]): 1
CCN1CCCC1CNC1c2cc(OC)ccc2OCc2ncccc21 (stereo in doubt; 26) [listing 2 of 2 here],–,23,–,2,–
COc1ccc2c(c1)C(NCCN(C(C)C)C(C)C)c1cccnc1CO2 (configuration not stated),> 100,17,0,4,–
CCN(CC)CCNC1c2cc(Cl)ccc2OCc2ncccc21 (configuration not stated),> 100,–,–,–,–
COc1ccc2c(c1)C(NCCN1CCCC1)c1cccnc1CO2 (configuration not stated),> 100,12,–,3,No. positive cases/tested (Canis familiaris [12]): 0
"CCN(CC)CCNC1c2cc(OC)ccc2OCc2ncccc21 (single isomer, unassigned; (-))",–,–,–,–,Inhibition (Canis familiaris [16]): 94%
CCN(CC)CC(=O)NC1c2cc(OC)ccc2OCc2ncccc21 (configuration not stated),> 100,1,0,-3,–

SMILES,ED50 (Mus musculus [1]; [22]) [mg/kg],inhibition [2] [%],No. positive cases/tested (Canis familiaris [3]),inhibition [4] [%],other results
Cc1cccc(C)c1OCC(C)N (configuration not stated) [MEXILETINE],71,-3,–,-1,Ratio [10]: 1.7
COc1ccc2c(c1)C(NCCN1CCOCC1)c1cccnc1CO2 (configuration not stated),> 100,0,0,0,–
CCN(CC)CCNC1c2cccnc2COc2c(OC)cccc21 (configuration not stated),> 100,37,0,12,–
CCN1CCCC1CNC1c2cc(OC)ccc2OCc2ncccc21 (stereo in doubt; 27) [listing 1 of 2 here],–,25,–,3,–
CCN(CC)CCNC1c2cc(O)ccc2OCc2ncccc21 (configuration not stated),> 100,-1,–,0,No. positive cases/tested (Canis familiaris [17]): 1
COc1ccc2c(c1)C(N1CCN(C)CC1)c1cccnc1CO2 (configuration not stated),81,11,0,0,–
CCN(CC)CCNC1c2cc(OC)c(OC)cc2OCc2ncccc21 (configuration not stated),> 100,2,0,7,–
COc1ccc2c(c1)C(NCCCNC1CCCCC1)c1cccnc1CO2 (configuration not stated),> 100,-1,–,-1,No. positive cases/tested (Canis familiaris [18]): 3
COc1ccc2c(c1)C(NCCN1[C@@H](C)CC[C@@H]1C)c1cccnc1CO2 (some centres not stated),100,6,–,-2,No. positive cases/tested (Canis familiaris [19]): 0
CCN(CC)CCNC1c2cc(OC)ccc2OCc2ncccc21 (racemic),–,–,–,–,Inhibition (Canis familiaris [16]): 76%
COc1ccc2c(c1)C(NCCN(C)C)c1cccnc1CO2 (configuration not stated),> 100,15,0,3,–
COc1ccc2c(c1)C(NCCCN(C)C)c1cccnc1CO2 (configuration not stated),> 100,5,0,1,–
CCNCCNC1c2cc(OC)ccc2OCc2ncccc21 (configuration not stated),> 100,1,–,2,No. positive cases/tested (Canis familiaris [12]): 0
CCN(CC)CCNC1c2cc(OC)ccc2OCc2ncccc21 (configuration not stated) [listing 1 of 2 here],–,8,–,-3,–
COc1ccc2c(c1)C(NCCN)c1cccnc1CO2 (configuration not stated),> 100,5,0,-1,–
COc1ccc2c(c1)C(NCCN1[C@H](C)CC[C@@H]1C)c1cccnc1CO2 (some centres not stated),> 100,15,–,3,No. positive cases/tested (Canis familiaris [6]): 1
CCN(CC)CCNC1c2cc(OC)ccc2OCc2ncccc21 (configuration not stated) [listing 2 of 2 here],–,–,–,–,ED100 (Mus musculus [8]): 194 mg/kg; ED50 (Mus musculus [20]): 62 mg/kg; No. positive cases/tested (Canis familiaris [21]): 3; Ratio [10]: 4
CCN(CC)CCCNC1c2cc(OC)ccc2OCc2ncccc21 (configuration not stated),50,24,–,4,No. positive cases/tested (Canis familiaris [6]): 1
CCN1CCCC1CNC1c2cc(OC)ccc2OCc2ncccc21 (stereo in doubt; 27) [listing 2 of 2 here],58,–,–,–,No. positive cases/tested (Canis familiaris [6]): 1
"CCN(CC)CCNC1c2cc(OC)ccc2OCc2ncccc21 (single isomer, unassigned; (+))",–,–,–,–,Inhibition (Canis familiaris [16]): 51%
